Literature values as cited in US6943193B1, “Method for treating sexual dysfunction” (priority 2003, dated 2005).

Test system: erectile dysfunction

In the case of `CCCc1nn(C)c2c(=O)[nH]c(-c3cc(S(=O)(=O)N4CCN(C)CC4)ccc3OCC)nc12` [sildenafil], the efficacy (clinical practice) is given as roughly 50% and the success rates (initial reports) is given as no more than 85%.
